Data from paper PMC10179701, “Towards Protection of Nucleic Acids from Herbicide Attack: Self-Assembly of Betaines Based on Pillar[5]arene with Glyphosate and DNA” (International Journal of Molecular Sciences, 2023).
Marks after values point to notes of the source that are not given here.

Columns and labels:
[1] = Dynamic light scattering of macrocycle aggregates in water; assay type: physicochemical; conditions: H2O, 298 K
Experimental: The next stage of the work was the study of aggregation properties of both previously synthesized ester derivatives of amino acids 1 and 2, and macrocyclic betaine derivatives 3 and 4 by dynamic light scattering (DLS). The study was carried out in water in the 1 × 10^–6–1 × 10^–4 M concentration range (Figures S11–S22). The size of associates increases with decreasing macrocycle 1 concentration in solution (Table 1). A different pattern is observed for betaine derivative 3. Thus, the particles become coarser, and the polydispersity index (PDI) of the systems increased with an increase in compound 3 concentration, which is probably due to the formation of β-sheets by oligopeptide substituents. The presence of two oppositely charged fragments in one substituent leads to the fact that compound 3 becomes similar to surfactant molecules in terms of its aggregation properties.

A549 cells [2] = assay: MTT test, A549 cells
Experimental: (§1) The next stage of this work was the study of pillar[5]arenes 1–4 ability to inhibit the viability and proliferative activity of embryonic lung epithelial (LEC) and human lung adenocarcinoma (A549) cells using the MTT test.
(§2) Further, the ability of GIS to inhibit the viability and proliferative activity of LEC and A549 cells was studied by the MTT test. […] The average inhibitory concentration (IC50) was calculated for GIS (Table 3). […]
(§3) 1.6. Cytotoxicity of pillar[5]arenes 1–4, GIS and their mixtures on A549 and LEC Cell Lines […]
(§4) activity of LEC cells and A549 cells was investigated using the MTT test according to [2]. A549 – human alveolar adenocarcinoma cell line (ATCC, Rockville, Maryland, USA) and cow embryo lung epithelial (LEC) cells (Animal Cell Culture Collection of Russian Academy of Agricultural Science, Kazan, Russia) were cultured in DMEM (GIBCO, Waltham, MA, USA) medium supplemented with 10% serum and 100 units/mL of penicillin (PanEco, Moscow, Russia) and streptomycin (PanEco, Moscow, Russia) in a humidified atmosphere with 5% CO2 at 37 °C. Cells were seeded in 96‐well plates at a concentration of 10^4 cells/well. After 24 h of cultivation, the medium was removed from the wells and replaced with a fresh one with the addition of the test substances. The volume of the culture medium in the wells was 100
(§5) μL. After 24 h incubation of cells in the presence of substances, the medium in the wells was replaced with a fresh one containing MTT reagent at a final concentration of 0.5 mg/mL. The cells were incubated with MTT for 4 h at 37 °C in an atmosphere of 5% CO2. Then, the medium was aspirated from the wells and 100 μL of dimethyl sulfoxide was added. Probes were incubated at 37 °C for 15 min in the dark for the formazan crystals to dissolve. The optical density of the formazan solution in the wells was measured using a plate reader (BioRad xMarkTM Microplate Spectrophotometer, USA) at a wavelength of 570 nm.
(§6) Three series of experiments were carried out with at least 8 replications for each variant in the series. […]

LEC cells = assay: MTT test, LEC cells
Experimental: as §1, §2, §3, §4, §5, §6

A549 cells [3] = assay: MTT assay, combined action of macrocycles with GIS on A549 cells; assay type: cell-based, human; conditions: A549, pillararene 1 × 10^–5 M with GIS 3.47 × 10^–2 M
Experimental: The ability to inhibit the viability and proliferative activity of A549 cells of macrocycles 1–4 in the presence of GIS was studied using the MTT assay. […] The developed approach opens up the possibility of creating pillar[5]arene-based herbicide antidotes. […]
fresh one with the addition of the test substances.
Then, the medium was aspirated from the wells
and 100 μL of dimethyl sulfoxide was added.
the formazan crystals to dissolve. […]
substances. […] After 24 h of incubation cells were […]

DNA from salmon sperm = assay: UV-Vis spectrophotometric titration of (pillar[5]arene-DNA) associates with GIS; assay type: binding; conditions: 1:1 composition, Tris-HCl buffer, CPA 3 × 10^–6 M, CDNA 2.5 × 10^–7 M, GIS 1:0.3 to 1:10
Text: It is well known that water-soluble derivatives of pillar[5]arene can applicate as antidotes for various drugs. The interaction of GIS with DNA with a logarithm of the association constant of 4.92 was shown. […] In this regard, a hypothesis about the possibility of using the synthesized macrocycles as a glyphosate antidote for DNA protection was proposed. Therefore, the behavior of the associate (macrocycle-DNA) with GIS was studied by UV-Vis spectroscopy to test the hypothesis above. First, a solution of DNA (2.5 × 10^–7 M) was added to the macrocycle (1–4) solution (3 × 10^–6 M). Then the herbicide solution (CGIS = 3 × 10^–6 M) was added to the resulting associate, and the absorption spectrum of the resulting ternary system was recorded. […]
Further, the interaction of the (pillar[5]arene–DNA) associated with GIS was quantified (Figure 7c,d and Figure S28). […] The effective association constants of the (macrocycle-DNA)-GIS associates of 1:1 composition were calculated (Table 2). […]
buffer solution. The UV spectra of the solutions were then recorded. The stability constant of complex was calculated by Bindfit. […]
volume of 3 mL with Tris‐HCl buffer solution. The UV spectra of the solutions were then recorded. The stability constant of each complex was calculated by Bindfit. […]
stability constant of complex was calculated by Bindfit. […]

## C[N+](C)(CCCNC(=O)COc1cc2c(OCC(=O)NCCC[N+](C)(C)CC(=O)N[C@@H](Cc3ccccc3)C(=O)[O-])cc1Cc1cc(OCC(=O)NCCC[N+](C)(C)CC(=O)N[C@@H](Cc3ccccc3)C(=O)[O-])c(cc1OCC(=O)NCCC[N+](C)(C)CC(=O)N[C@@H](Cc1ccccc1)C(=O)[O-])Cc1cc(OCC(=O)NCCC[N+](C)(C)CC(=O)N[C@@H](Cc3ccccc3)C(=O)[O-])c(cc1OCC(=O)NCCC[N+](C)(C)CC(=O)N[C@@H](Cc1ccccc1)C(=O)[O-])Cc1cc(OCC(=O)NCCC[N+](C)(C)CC(=O)N[C@@H](Cc3ccccc3)C(=O)[O-])c(cc1OCC(=O)NCCC[N+](C)(C)CC(=O)N[C@@H](Cc1ccccc1)C(=O)[O-])Cc1cc(OCC(=O)NCCC[N+](C)(C)CC(=O)N[C@@H](Cc3ccccc3)C(=O)[O-])c(cc1OCC(=O)NCCC[N+](C)(C)CC(=O)N[C@@H](Cc1ccccc1)C(=O)[O-])C2)CC(=O)N[C@@H](Cc1ccccc1)C(=O)[O-] [Compound 4, 4,8,14,18,23,26,28,31,32,35-Decakis-[(N-[3’-dimethyl({oxidocarbonyl[S-benzyl]methyl}aminocarbonylmethyl)ammonio]propyl)aminocarbonylmethoxy]-pillar[5]arene]
[1]; 1 × 10^–4 M
  polydispersity index (PDI): 0.36
  size of aggregates d: 127 ± 16 nm
[1]; 1 × 10^–5 M
  polydispersity index (PDI): 0.41
  size of aggregates d: 218 ± 10 nm
[1]; 1 × 10^–6 M
  polydispersity index (PDI): 0.42
  size of aggregates d: 457 ± 65 nm
A549 cells [2]; A549, MTT, 24 h
  IC50: >100 * μg/mL
A549 cells [2]; A549, concentration range 2–100 μg/mL
  cytotoxic activity: did not show statistically significant cytotoxic activity
LEC cells; MTT, 24 h
  IC50: >100 * μg/mL
LEC cells; concentration range 2–100 μg/mL
  cytotoxic activity: did not show statistically significant cytotoxic activity
A549 cells [3]
  change of toxicity on combined action with GIS: No significant differences
DNA from salmon sperm
  lgKa of (pillar[5]arene-DNA) associate with GIS: decrease in lgKa by more than an order of magnitude
DNA from salmon sperm; listed as betaine pillar[5]arene containing fragments of L-Phe
  lgKa of (pillar[5]arene-DNA) associate with GIS: 3.60
